These results are taken from patent US10160771B2, “Hepatitis C virus inhibitors and uses thereof in preparation of drugs” (priority 2014, dated 2018).

One data set relates to HCV-1b replicon cells. Put plainly: Cell Titer-fluor cell activity assay in HCV-1b replicon cells (CC50). The settings on record: 3 days. The class given is cell-based. In short, it runs like this:
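CC50 derived by nonlinear fitting of inhibition % from Cell Titer-fluor signal (405/515 nm, 30 min). Cells: genotype 1b Con1 replicon carrying E1202G, T1280I, K1846T, seeded 8000/well with compound for 3 days, 37 °C, 0.5% DMSO; 6 points, 5-fold dilution, top 100, 10 or 1 nM, duplicates.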
On the technique in general: A replicon is a self-replicating genome or part of one, used to study replication in cells.

Data set [1] concerns HCV genotype 1a (HCV-1a) replicon cells. Put plainly: HCV genotype 1a replicon luciferase assay (EC50). The format is cell-based, hepatitis C virus genotype 1a (H77 clone). The settings on record: 3 days, luciferase (Bright-Glo). In short, it runs like this:
(§1)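 Replicon cells, 8000/well, 3 d, 37 °C; 6-pt 5-fold dilution from 100, 10 or 1 nM, 0.5% DMSO, duplicates; Bright-Glo luminescence → EC50 (nonlinear fit). 1a = H77 K1691R/K2040R/S2204I; 1b = Con1 E1202G/T1280I/K1846T.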

Data set [2] concerns HCV genotype 1b (HCV-1b) replicon cells. Kind of data set: HCV genotype 1b replicon luciferase assay (EC50). The class given is cell-based, hepatitis C virus genotype 1b (Con1 clone). The conditions noted are these: 3 days, luciferase (Bright-Glo). In short, it runs like this:
as §1

SMILES strings stand for the structures. pEC50: −log10 of the molar value.

The term CC50 denotes the concentration giving 50% cytotoxicity. Higher therefore signals better tolerance by the cells. By pEC50 is commonly meant the negative decadic logarithm of the EC50, by convention in mol/L. In the data set with HCV-1b replicon cells, `COC(=O)N[C@H](C(=O)N1CCC[C@H]1c1ncc(-c2ccc(-c3ccc(-c4[nH]c([C@@H]5CCCN5C(=O)[C@@H](NC(=O)OC)[C@@H](C)OC)c5c4COC5)cc3)cc2)[nH]1)[C@@H](C)OC` [AG_080_A] gave a CC50 greater than 5 nM. Besides, the pEC50 in data set [1] and in data set [2] was 10.00 to 12.00 throughout.

In the case of `COC(=O)NC(C(=O)N1CCCC1c1[nH]c(-c2ccc(-c3ccc(-c4cnc([C@@H]5CCCN5C(=O)[C@@H](NC(=O)OC)C(C)C)[nH]4)cc3)cc2)c2c1CCC2)C1CCOC1` (single isomer, unassigned) [AG_025_C], the 50% cytotoxic concentration (CC50) with HCV-1b replicon cells was greater than 10 nM. For the same molecule, the negative logarithm of the EC50 (pEC50) is 7.00 to 8.00 in data set [1] and 9.00 to 10.00 in data set [2].

In the data set on HCV-1b replicon cells, `COC(=O)N[C@H](C(=O)N1CCC[C@H]1c1ncc(-c2ccc(-c3ccc(-c4cnc(C5C6CCC(C6)[C@H]5C(=O)N[C@H](c5cccnc5)C(C)C)[nH]4)cc3)cc2)[nH]1)[C@@H](C)OC` (stereo partly drawn) [AA_271_B] gave a 50% cytotoxic concentration (CC50) greater than 1 nM. The results for the pEC50 in data set [1] and in data set [2] were 7.00 to 8.00 and 9.00 to 10.00, respectively.

In the data set on HCV-1b replicon cells, `COC(=O)N[C@H](C(=O)N1CCC[C@H]1c1ncc(-c2ccc(-c3ccc(-c4cnc([C@H]5C6CCC(C6)[C@@H]5C(=O)NC(C)c5cccnc5)[nH]4)cc3)cc2)[nH]1)C(C)C` (single isomer, unassigned) [AA_204_C] displayed a 50% cytotoxic concentration (CC50) greater than 1 nM. The results for the pEC50 in data set [1] and in data set [2] were 8.00 to 9.00 and 10.00 to 12.00, respectively.

In turn, `COC(=O)NC(C(=O)N1CCCC1c1[nH]c(-c2ccc(-c3ccc(-c4cnc([C@@H]5CCCN5C(=O)[C@@H](NC(=O)OC)C(C)C)[nH]4)cc3)cc2)c2c1CCC2)C1CCOC1` (single isomer, unassigned) [AG_025_B] gave a CC50 in the data set on HCV-1b replicon cells greater than 10 nM. Further, the figures for the pEC50 in data set [1] and in data set [2] were 7.00 to 8.00 and 10.00 to 12.00, respectively.

Molecule `COC(=O)N[C@H](C(=O)N1CCC[C@H]1c1ncc(-c2ccc(-c3ccc(-c4cnc(C5C6CCC(C6)[C@@H]5C(=O)N[C@H](C)c5cccnc5)[nH]4)cc3)cc2)[nH]1)[C@@H](C)OC` (single isomer, unassigned) [AA_253_C] yielded a half-maximal cytotoxic concentration (CC50) in the data set on HCV-1b replicon cells greater than 1 nM. Moreover, the pEC50 in data set [1] is 7.00 to 8.00; in data set [2], 8.00 to 9.00.

On to `COC(=O)N[C@H](C(=O)N1CC2(C[C@H]1c1ncc(-c3ccc(-c4ccc(-c5[nH]c([C@@H]6CCCN6C(=O)[C@@H](NC(=O)OC)[C@@H](C)OC)c6c5CCC6)cc4)cc3)[nH]1)OCCO2)[C@@H](C)OC` [AG_089], for which the CC50 in the data set with HCV-1b replicon cells is greater than 1 nM. The results for the pEC50 in data set [1] and in data set [2] were 8.00 to 9.00 and 10.00 to 12.00, respectively.

As to `COC(=O)N[C@H](C(=O)N1CCC[C@H]1c1ncc(-c2ccc(-c3ccc(-c4cnc(C5C6CCC(C6)[C@@H]5C(=O)N[C@H](c5cccnc5)C(C)C)[nH]4)cc3)cc2)[nH]1)[C@@H](C)OC` (stereo partly drawn) [AA_271_A], the CC50 with HCV-1b replicon cells was greater than 1 nM. The figures for the negative-log EC50 (pEC50) in data set [1] and in data set [2] were 9.00 to 10.00 and 10.00 to 12.00, respectively.
